Measured values as given in US20210122763A1, “OGA INHIBITOR COMPOUNDS” (Janssen Pharmaceutica NV, priority 2018, published 2021).

Tests used:
OGA = biological target: T1, OGA (Homo sapiens, UniProt O60502); test: OGA cellular assay (ICC detection of O-GlcNAcylated proteins in HEK293 cells inducible for P301L mutant human Tau); format: cell-based; settings: 6 hours incubation; for Emax: HEK293, HEK293 cells inducible for P301L mutant human Tau, maximum = Thiamet G 200 uM; for EC50: HEK293 cells inducible for P301L mutant human Tau, read-out: Cellular hOGA, pEC50 (converted)
T1 construct: HEK293 cells inducible for P301L mutant human Tau (isoform 2N4R) were established at Janssen; endogenous in cells; host or cells: HEK293 cells inducible for P301L mutant human Tau (2N4R)
T1 sequence (O60502 1-916): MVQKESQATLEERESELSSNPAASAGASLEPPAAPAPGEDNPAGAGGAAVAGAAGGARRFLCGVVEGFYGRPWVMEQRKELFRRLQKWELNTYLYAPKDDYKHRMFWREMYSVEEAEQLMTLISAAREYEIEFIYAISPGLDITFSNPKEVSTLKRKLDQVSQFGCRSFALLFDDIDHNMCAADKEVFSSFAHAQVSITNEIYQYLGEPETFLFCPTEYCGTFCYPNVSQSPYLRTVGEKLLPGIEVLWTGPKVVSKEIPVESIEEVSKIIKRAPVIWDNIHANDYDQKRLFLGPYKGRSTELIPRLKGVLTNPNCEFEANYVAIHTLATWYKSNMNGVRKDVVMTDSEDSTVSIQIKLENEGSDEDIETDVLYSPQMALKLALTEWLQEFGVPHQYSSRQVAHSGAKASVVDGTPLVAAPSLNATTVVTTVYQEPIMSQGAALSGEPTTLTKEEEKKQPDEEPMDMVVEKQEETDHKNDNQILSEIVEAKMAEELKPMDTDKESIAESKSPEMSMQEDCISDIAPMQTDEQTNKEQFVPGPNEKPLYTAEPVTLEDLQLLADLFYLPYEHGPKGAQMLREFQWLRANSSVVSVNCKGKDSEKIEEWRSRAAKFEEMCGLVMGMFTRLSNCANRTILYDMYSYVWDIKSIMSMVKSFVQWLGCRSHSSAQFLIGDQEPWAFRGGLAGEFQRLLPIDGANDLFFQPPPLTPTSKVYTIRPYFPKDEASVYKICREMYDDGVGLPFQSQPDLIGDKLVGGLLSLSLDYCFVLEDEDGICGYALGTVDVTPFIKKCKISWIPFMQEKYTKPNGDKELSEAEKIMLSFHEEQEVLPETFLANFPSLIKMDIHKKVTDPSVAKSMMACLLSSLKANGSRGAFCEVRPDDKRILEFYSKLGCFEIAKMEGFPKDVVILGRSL
Method: HEK293 cells inducible for P301L mutant human Tau (isoform 2N4R) were established at Janssen. Thiamet-G was used for both plate validation (high control) and as reference compound (reference EC50 assay validation). OGA inhibition is evaluated through the immunocytochemical (ICC) detection of O-GlcNAcylated proteins by the use of a monoclonal antibody (CTD110.6; Cell Signaling, #9875) detecting 0-GlcNAcylated residues as previously described (Dorfmueller et al. 2010 Chemistry & biology, 17:1250). Inhibition of OGA will result in an increase of 0-GlcNAcylated protein levels resulting in an increased signal in the experiment. Cell nuclei are stained with Hoechst to give a cell culture quality control and a rough estimate of immediate compounds toxicity, if any. ICC pictures are imaged with a Perkin Elmer Opera Phenix plate microscope and quantified with the provided software Perkin Elmer Harmony 4.1.
Cells were propagated in DMEM high Glucose (Sigma, #D5796) following standard procedures. 2 days before the cell assay cells are split, counted and seeded in Poly-D-Lysine (PDL) coated 96-wells (Greiner, #655946) plate at a cell density of 12,000 cells per cm^2 (4,000 cells per well) in 100p of Assay Medium (Low Glucose medium is used to reduce basal levels of GlcNAcylation) (Park et al. 2014 The Journal of biological chemistry 289:13519). At the day of compound test medium from assay plates was removed and replenished with 90 μl of fresh Assay Medium. 10 μl of compounds at a 10 fold final concentration were added to the wells. Plates were centrifuged shortly before incubation in the cell incubator for 6 hours. DMSO concentration was set to 0.2%. Medium is discarded by applying vacuum. For staining of cells medium was removed and cells washed once with 100 μl D-PBS (Sigma, #D8537). From next step onwards unless other stated assay volume was always 50p and incubation was performed without agitation and at room temperature. Cells were fixed in 50 μl of a 4% paraformaldehyde (PFA, Alpha aesar, #043368) PBS solution for 15 minutes at room temperature. […] Before analysis samples were washed 2 times manually for 5 minutes in ICC base buffer.
Imaging is performed using Perkin Elmer Phenix Opera using a water 20× objective and recording 9 fields per well. Intensity readout at 488 nm is used as a measure of O-GlcNAcylation level of total proteins in wells. To assess potential toxicity of compounds nuclei were counted using the Hoechst staining. IC50-values are calculated using parametric non-linear regression model fitting. As a maximum inhibition Thiamet G at a 200 uM concentration is present on each plate. In addition, a concentration response of Thiamet G is calculated on each plate.

[1] = biological target: T2, recombinant human Meningioma Expressed Antigen 5 (MGEA5), also referred to as O-GlcNAcase (OGA) (Homo sapiens, UniProt O60502); test: OGA biochemical assay (inhibition of FM-GlcNAc hydrolysis, fluorescence); settings: for Emax: read-out: Enzymatic Emax (%); for IC50: read-out: Enzymatic hOGA, pIC50 (converted)
T2 construct: Full length OGA enzyme was purchased at OriGene (cat #TP322411); purchased OriGene TP322411
T2 sequence (O60502 1-916): T1 sequence (O60502 1-916)
From the text: The assay is based on the inhibition of the hydrolysis of fluorescein mono-B-D-N-Acetyl-Glucosamine (FM-GcNAc) (Mariappa et al. 2015, Biochem J470:255) by the recombinant human Meningioma Expressed Antigen 5 (MGEA5), also referred to as O-GlcNAcase (OGA). The hydrolysis FM-GlcNAc (Marker Gene technologies, cat #M1485) results in the formation of B-D-N-glucosamineacetate and fluorescein. The fluorescence of the latter can be measured at excitation wavelength 485 nm and emission wavelength 538 nm. An increase in enzyme activity results in anincrease in fluorescence signal. Full length OGA enzyme was purchased at OriGene (cat #TP322411). The enzyme was stored in 25 mM Tris.HCl, pH 7.3, 100 mM glycine, 10% glycerol at −20° C. Thiamet G and GlcNAcStatin were tested as reference compounds (Yuzwa et al. 2008 Nature Chemical Biology 4:483; Yuzwa et al. 2012 Nature Chemical Biology 8:393). The assay was performed in 200 mM Citrate/phosphate buffer supplemented with 0.005% Tween-20. 35.6 g Na2HPO4 2H2O (Sigma, #C0759) were dissolved in 1 L water to obtain a 200 mM solution. 19.2 g citric acid (Merck, #1.06580) was dissolved in 1 L water to obtain a 100 mM solution. pH of the sodiumphosphate solution was adjusted with the citric acid solution to 7.2. The buffer to stop the reaction consists of a 500 mM Carbonate buffer, pH 11.0. 734 mg FM-GlcNAc were dissolved in 5.48 mL DMSO to obtain a 250 mM solution and was stored at −20° C. OGA was used at a 2 nM concentration and FM-GcNAc at a 100 uM final concentration. Dilutions were prepared in assay buffer.
50 nl of a compound dissolved in DMSO was dispensed on Black Proxiplate™ 384 Plus Assay plates (Perkin Elmer, #6008269) and 3 μl fl-OGA enzyme mix added subsequently. Plates were pre-incubated for 60 min at room temperature and then 2 μl FM-GlcNAc substrate mix added.
Plates were briefly centrifuged for 1 min at 1000 rpm and incubate at room temperature for 6 h. To stop the reaction 5 μl STOP buffer were added and plates centrifuge again 1 min at 1000 rpm. Fluorescence was quantified in the Thermo Scientific Fluoroskan Ascent or the PerkinElmer EnVision with excitation wavelength 485 nm and emission wavelength 538 nm.
For analysis a best-fit curve is fitted by a minimum sum of squares method. From this an IC50 value and Hill coefficient was obtained. High control (no inhibitor) and low control (saturating concentrations of standard inhibitor) were used to define the minimum and maximum values.

Emax (OGA)	EC50 (OGA)	Emax [1]	IC50 [1]	SMILES
73%	316 nM	101%	20 nM	CC(c1nc2c(cc1F)OCCO2)N1CCC(Oc2ccc(C(F)(F)F)nn2)CC1 (stereo not drawn) [Compound 39]
59%	631 nM	101%	126 nM	Cc1cc(OC2CCN(C(C)c3cnc4sc(C)nc4c3)CC2)cc(C)n1 (stereo not drawn) [Compound 40]
74%	501 nM	99%	50.1 nM	Cc1ccc(OC2CCN(C(C)c3ccc4c(n3)OCCO4)CC2)cn1 (stereo not drawn) [Compound 41]
25%	> 1000 nM	96%	501 nM	CC(c1ccc2c(n1)OCCO2)N1CCC(COc2ccc(C(F)(F)F)cn2)CC1 (stereo not drawn) [Compound 43]
33%	> 1000 nM	98%	158 nM	Cc1cccc(OC2CCN(C(C)c3ccc4c(n3)OCCO4)CC2)n1 (stereo not drawn) [Compound 46]
67%	316 nM	99%	63.1 nM	Cc1cncc(OC2CCN(C(C)c3ccc4c(n3)OCCO4)CC2)c1 (stereo not drawn) [Compound 47]
84%	251 nM	98%	20 nM	Cc1cc(C(F)(F)F)cc(OC2CCN(C(C)c3nc4c(cc3F)OCCO4)CC2)n1 (stereo not drawn) [Compound 48]
16%	> 1000 nM	96%	501 nM	CC(c1ccc2c(n1)OCCO2)N1CCC(Oc2ncc(F)cc2F)CC1 (stereo not drawn) [Compound 52]
84%	117 nM	95%	39.8 nM	Cc1cc(OC2CCN(C(C)c3ccc4c(n3)OCC4)CC2)cc(C)n1 (stereo not drawn) [Compound 60]
61%	316 nM	94%	31.6 nM	Cc1cc(OC2CCN(C(C)c3ccc4c(n3)OCCO4)CC2)cc(C(F)F)n1 (stereo not drawn) [Compound 64]

Further lines, the molecule ahead of its results:

SMILES	Emax (OGA)	EC50 (OGA)	Emax [1]	IC50 [1]
Cc1cc(OC2CCN(C(C)c3nc4c(cc3F)CCO4)CC2)c(Cl)c(C)n1 (stereo not drawn) [Compound 35]	98%	25.1 nM	101%	7.94 nM
Cc1cc(COC2CCN(Cc3ccc4sc(C)nc4n3)CC2)cc(C)n1 [Compound 36]	7%	> 1000 nM	90%	1260 nM
COc1cc(OC2CCN(C(C)c3cnc4c(c3)OCCO4)CC2)cc(C)n1 (stereo not drawn) [Compound 37]	23%	> 1000 nM	98%	398 nM
Cc1cc(OC2CCN(C(C)c3cc4nc(C)sc4cc3F)CC2)nc(C)n1 (stereo not drawn) [Compound 38]	64%	251 nM	101%	15.8 nM
CC(c1ccc2c(n1)OCCO2)N1CCC(Oc2ccc(C(F)(F)F)cn2)CC1 (stereo not drawn) [Compound 42]	21%	> 1000 nM	101%	100 nM
Cc1ccnc(OC2CCN(C(C)c3ccc4c(n3)OCCO4)CC2)c1 (stereo not drawn) [Compound 44]	57%	501 nM	98%	200 nM
Cc1cc(OC2CCN(C(C)c3ccc4c(n3)OCCO4)CC2)ccn1 (stereo not drawn) [Compound 45]	59%	631 nM	96%	100 nM
CC(c1nc2c(cc1F)OCCO2)N1CCC(Oc2ccc(C#N)cn2)CC1 (stereo not drawn) [Compound 49]	81%	288 nM	99%	20 nM
CC(c1ccc2c(n1)OCCO2)N1CCC(Oc2ncccc2C#N)CC1 (stereo not drawn) [Compound 50]	9%	> 1000 nM	95%	1000 nM
CC(c1ccc2c(n1)OCCO2)N1CCC(Oc2ccnc(C#N)c2)CC1 (stereo not drawn) [Compound 51]	60%	631 nM	100%	63.1 nM
Cc1cc(OC2CCN(C(C)c3cnc4c(c3)OCC4)CC2)cc(C)n1 (stereo not drawn) [Compound 58]	38%	–	89%	1260 nM
Cc1cc(OC2CCN(C(C)c3nc4c(cc3F)OCCO4)CC2)cc(C(F)F)n1 (stereo not drawn) [Compound 63]	80%	79.4 nM	96%	10 nM
